Reference: paper PMC9611726, “Synthesis, Characterization and Biological Investigation of New N-Modified Spinorphin Analogs” (Pharmaceuticals, 2022)
Where a SMILES comes first, the peptide text is derived from it. [ ]: non-standard residue; d: D form. The star is where a group is joined. X1 = CCN(CC)c1ccc2c(c1)Oc1cc(N(CC)CC)ccc1C2c1ccccc1C(=O)*; Ac6c = NC1(C(=O)O)CCCCC1; Ac5c = NC1(C(=O)O)CCCC1

Legend:
[1] = Antioxidant activity, DPPH radical scavenging; details: 77 μL sample + 3 mL DPPH, 30 min in the dark, 517 nm, standard BHT
Description: The determination of the antioxidant activity of the new peptide derivatives was carried out by inserting 77 μL of hL extract into a test tube, then adding 3 mL of DPPH solution, homogenizing, and incubating for 30 min in a dark room. The measurement of antioxidant activity was performed by a spectrophotometer with a wavelength of 517 nm. The treatment was carried out three times. The determination of activity for the standard solution was conducted by first diluting 0.025 BHT (butylated hydroxytoluene) with 1 mL of methanol. Then 3 mL of DPPH was added to 77 μL of BHT solution in a test tube, homogenized, and incubated for 30 min in a dark room. The treatment was repeated three times. For the blank, only 77 μL of methanol plus 3 mL of DPPH were used, then homogenized and incubated for 30 min in a dark room. According to Millauskas et al. (2004), the free radical scavenging activity of the sample was calculated by the formula:(3) DPPH radical concentration (%)=Acontrol− Asample/Acontrol × 100 where Acontrol is the absorbance value of the control reaction and Asample is the absorbance value in the presence of the tested extracts sample.

[2] = Acid-base constants (pKa) and isoelectric point (pI) by fluorimetry, confirmed by UV-Vis; type: physicochemical; details: for pKa2 / pKa1: fluorimetric, inflection of I/pH curve, confirmed by UV-Vis, average values from repeatable results; for pKa2: pH 1 to 12, rhodamine part (λex 560 nm); for pKa1: pH 1 to 12, tryptophan emission (λex 275 nm); for pI: isoelectric point calculated from the protolytic constants
Description: When studying the fluorescence properties, the emission spectra were recorded upon excitation at two wavelengths: λ^ex = 275 nm where tryptophan/tyrosine fluoresces, and at λ^ex = 560 nm where excitation of the rhodamine moiety is possible (Figure 5 and Figure 6). […] With both amino acids present in the indicated complex mixture, the fluorescence in the 300–400 nm range is more likely to originate from the indole group of the tryptophan residue, which is known to emit at ~350 nm at an excitation wavelength of 280 nm. Moreover, spectra were recorded at different pHs of the medium to determine the study compounds’ acid constants and isoelectric points. All compounds show similar behavior of fluorescence properties with minimal difference in wavelength where the compound absorbs in the visible region (1–2 nm). A strong decrease in the intensity of the emission maximum at λ^em = 585 nm is observed with an increase in the pH of the medium, which is due to the structural changes associated with the closure of the spirolactam ring at rhodamine. pH also affects the fluorescence emission intensity of the tryptophan/tyrosine spectral line. […] The obtained emission spectra at different pHs helped us to determine the acidity constants of the obtained compounds. pK values were obtained by selecting the inflection points of the I/pH curve at two wavelengths: 275 nm, where tryptophan emits, and 575 nm for the rhodamine part, respectively (Figure 5 and Figure 6, inserted graphs). At these points the concentrations of conjugated acid and base are equal, i.e., [HRh-S] = [Rh-S-], and according to the known relationship […] at this point pKa = рН. Equations (1) and (2) given in the experimental part were also used to calculate the acid constants to confirm the values. […] The proven higher values of the constants given in [24] are due to the influence of the –OH group of tyrosine, located near the spirolactam ring of rhodamine and leading to its more effortless opening. […] Based on the obtained values of the protolytic constants, the isoelectric points were calculated where the compounds would show zero charge and reduced solubility (Table 1). […] Stokes shift, showing the differences between the structure of the fluorophore in the ground S0 state and in the first excited state S1, was also determined as an essential feature for the rhodamine peptide derivatives (Figure 5, Table 2). The Stokes shift for all compounds at the rhodamine moiety is ~859 cm^−1, which is consistent with the rhodamine derivatives known in the literature.
Acid base constants and isoelectric points were determined fluorimetrically and confirmed by UV–Vis analyses. Absorption and emission spectra were recorded on a series of solutions with the same concentration of the peptide derivatives at different pHs (from 1 to 12). The assay data (intensity/absorbance versus pH) were processed with Origin8Pro mathematical software. The pK value were determined using the following equations:log [(Amax − A)/(A − Amin)] = pH − pKa(1) log [(IF max − IF)/(IF − IF min)] = pH – pKa(2) where the minimum (Amin) and the maximum (Amax) absorbances are at 275 nm and 557 nm, respectively, A is the absorbance at the given pH value; Fmax and Fmin are the maximum and minimum fluorescence emission intensity at 356 and 585 nm, respectively, F is the fluorescence intensity at the given pH value.

Structure (SMILES)	antioxidant activity compared to the positive control (in words) [1]	pKa2 [2]	pKa1 [2]	pI [2]
CCN(CC)c1ccc2c(c1)Oc1cc(N(CC)CC)ccc1C2c1ccccc1C(=O)N[C@@H](CC(C)C)C(=O)N[C@H](C(=O)N[C@H](C(=O)N[C@@H](Cc1ccc(O)cc1)C(=O)NC1(C(=O)N[C@@H](Cc2c[nH]c3ccccc23)C(=O)N[C@H](C(N)=O)[C@@H](C)O)CCCC1)C(C)C)C(C)C [Rh-S5, rhodamineB-Leu-Val-Val-Tyr-Ac5c-Trp-Thr-NH2] (X1-LVVY[Ac5c]WT-NH2)	weak	5.36	5.11	5.23
CCN(CC)c1ccc2c(c1)Oc1cc(N(CC)CC)ccc1C2c1ccccc1C(=O)N[C@@H](CC(C)C)C(=O)N[C@H](C(=O)N[C@H](C(=O)N[C@@H](Cc1ccc(O)cc1)C(=O)N1CCC[C@H]1C(=O)N[C@@H](Cc1c[nH]c2ccccc12)C(=O)N[C@H](C(N)=O)[C@@H](C)O)C(C)C)C(C)C [Rh-S, rhodamineB-Leu-Val-Val-Tyr-Pro-Trp-Thr-NH2] (X1-LVVYPWT-NH2)	similar	4.56	7.09	5.82
CCN(CC)c1ccc2c(c1)Oc1cc(N(CC)CC)ccc1C2c1ccccc1C(=O)N[C@@H](CC(C)C)C(=O)N[C@H](C(=O)N[C@H](C(=O)N[C@@H](Cc1ccc(O)cc1)C(=O)NC1(C(=O)N[C@@H](Cc2c[nH]c3ccccc23)C(=O)N[C@H](C(N)=O)[C@@H](C)O)CCCCC1)C(C)C)C(C)C [Rh-S6, rhodamineB-Leu-Val-Val-Tyr-Ac6c-Trp-Thr-NH2] (X1-LVVY[Ac6c]WT-NH2)	similar	4.94	6.35	5.65
